{"source": "patent US20130252987A1", "about": "“METHOD OF REGULATING PLASMA LIPOPROTEINS” (MCMASTER UNIVERSITY, priority 2010, published 2013)", "key": {"HepG2 cells [1]": {"system": "HepG2 cells", "assay": "real-time quantitative PCR of mRNA expression", "format": "cell-based, human", "details": "CP-346086 1.3 nM, 24 hours", "method": "Total RNA was isolated from cell lysates (RNeasy Mini Kit, Qiagen, Germantown, Md.) and used as a template for cDNA synthesis (QuantiTech Reverse Transcription Kit, Qiagen, Germantown, Md.). Quantitative real-time PCR was performed using an Applied Biosystems 7300 Real Time PCR system (Carlsbad, Calif.) according to the manufacturer's instructions and with the SYBR green master kit (Qiagen, Germantown, Md.). Primers for the real-time PCR internal control gene cyclophilin A (sense, 5′-[…]-3′ (SEQ ID NO:3); antisense, 5′-[…]-3′ (SEQ ID NO:4)) were synthesized (IDT, Coralville, Iowa). Primers for succinate degydrogenase (SDH) (another real-time PCR internal control gene), apoB, microsomal triglyceride transfer protein (MTP), Srebp1, Srebp2, acetyl-coA carboxylase (ACC), HMG-coA reductase, HMG-coA synthase, squalene synthase (SS), the LDL receptor, PCSK9, fatty acid synthase (FAS), […] (SCD), DGAT1 and DGAT2 were purchased (proprietary sequences not available) (Qiagen, Germantown, Md.). The values reported for each mRNA were corrected to the cyclophilin A and SDH mRNA values.\nTotal RNA was isolated from cell lysates (RNeasy Mini Kit, Qiagen, MD) and used as a template for cDNA synthesis (QuantiTech Reverse Transcription Kit, Qiagen, MD). Quantitative real-time PCR was performed using an Applied Biosystems 7300 Real-Time PCR system (Carlsbad, Calif.) according to the manufacturer's instructions and with the SYBR green kit (Qiagen, MD). Primers for the real-time PCR internal control gene cyclophilin A, as identified in Example 1, were synthesized (IDT, IA). Primers for succinate dehydrogenase (SDH) (another real-time PCR internal control gene), SREBP2, HMG-CoA reductase, the LDL receptor and PCSK9 were purchased (proprietary sequences not available) (Qiagen, MD). The values reported for each mRNA were corrected to the cyclophilin A and SDH mRNA values."}, "HepG2 cells [2]": {"system": "HepG2 cells", "assay": "cell viability, tryphan blue staining", "format": "cell-based, human", "details": "1.3 nM", "method": "Cell viability was determined with 0.4% tryphan blue (Sigma-Aldrich, ON) staining and calculated using the following formula: % Cell Viability=(number of unstained (living) cells/Total number of cells)×100.\nThe next question was whether this amount of human resistin is toxic to hepatocytes. Tryphan blue staining of HepG2 cells upon 50 ng/mL of resistin treatment to determine cell viability was performed."}, "HepG2 cells [3]": {"system": "HepG2 cells", "assay": "immunoblotting for LDL receptor and PCSK9 in HepG2 cells", "quoted_text": "Cells were propagated in 10% FBS-containing DMEM supplemented with 1% penicillin-streptomycin and 0.06% L-glutamine (584 mg/L) at 37° C., 5% CO2. During treatment experiments with human recombinant resistin (Calbiochem, UK) and/or lovastatin (Sigma, Mo.), the media was changed to 1% FBS-containing DMEM. All of the experiments to follow were performed at least three times and representative results are shown. Cells were stimulated with resistin at various doses (0, 10, 25, 50, and 100 ng/mL) for 24 hours or with a single dose at 50 ng/mL resistin. In other experiments, the microsomal triglyceride transfer protein (MTP) inhibitor, CP-346086, was administered at 1.3 nM, either alone or together with resistin (50 ng/mL) for 24 hours. Lovastatin was administered at 1 to 5 μM for 24 hours to stimulate the cells, either alone or in combination with resistin (50 ng/mL). Unless otherwise indicated, all experiments were performed in triplicate in three independent experiments.\nCell lysates collected with RIPA buffer (50 mM Tris, 150 mM sodium chloride, 1% NP-40, 12 mM sodium deoxycholate, 3.5 mM SDS, pH 7.4) and protease inhibitor cocktail (Roche Diagnostics, QC) were analyzed for human LDL receptor and PCSK9 as previously described (Rashid et al. Proc Nall Acad Sci U S A 2005; 102:5374-9). Equivalent amounts of total protein, determined by Bradford reaction was subjected to sodium dodecyl sulfate polyacrylamide gel electrophoresis (SDS-PAGE), transferred onto nitrocellulose membranes (BioRad, CA) and immunoblotted using antibodies against the LDL receptor (Fitzgerald International, CA) and PCSK9 (Cayman Chemicals, MI). Horseradish peroxidase-conjugated antibodies (BioRad, CA) were used as secondary antibodies. Immunoreactive bands were visualized with a chemiluminescence kit (PerkinElmer Life Sciences, MA). The blots were exposed to KODAK Biomax films, and the signal was quantified by densitometry using Quantity One version 4.6.7. software (Bio Rad, CA).\nAll of the experiments were performed at least three times and representative results are shown. Dose-response experiments were performed in HepG2 cells with 0, 10, 25, 50, 75 and 100 ng/mL of human resistin for 24 hours. Western blots were then performed on cell lysates to detect the cellular expression of LDL receptor protein."}, "HepG2 cells [4]": {"system": "HepG2 cells", "assay": "apoB and apolipoprotein expression and secretion, immunoprecipitation and Western blot", "format": "cell-based, human", "details": "lactacystin 10 μM, 24 hours", "method": "During experiments in which HepG2 cells were treated with human recombinant resistin (Calbiochem, UK) the media was changed to 1% FBS-containing DMEM. […] In separate experiments, cells were treated with the fatty acid, oleate (100 μM) (Sigma, ON) for 24 hours, with or without human resistin (50 ng/mL) for 24 hours. In other experiments, cells were treated with the 10 μM lactacystin (Cayman Chemical, Ann Arbor, Mich.) for 24 hours to assess intracellular proteosome-dependent apoB protein degradation.\nHorseradish peroxidase-conjugated antibodies (BioRad, Hercules, Calif.) were used as secondary antibodies.\nAll of the experiments to follow were performed three times and representative results are shown. […] Immunoprecipitation on cell lysates and media, followed by Western blots to detect the cellular expression and secretion of human apoB protein were then performed. The constitutively expressed cellular proteins, beta-actin and albumin were used as internal immunoblot controls to confirm equal protein loading in the apoB immunoblots of cell lysates and media, respectively. […] Treatment with 25 ng/mL resistin further stimulated apoB secretion by approximately 250% compared with untreated cells (FIG. 1A)."}, "[5]": {"system": "RETN (human resistin gene)", "assay": "resistin siRNA transfection of HepG2 cells", "format": "cell-based", "details": "10 nM siRNA, 24 or 48 hours", "method": "HepG2 cells were seeded 200,000 cells per well in a 6-well plate in 2300 uL of 10% FBS DMEM with antibiotics. Awaiting transfection, the cells were placed at 37° C. and 5% CO2. Next, 300 ng of siRNA against RETN (human resistin gene), with the sequence 5′[…] (SEQ ID NO: 5), purchased from Qiagen, MD, was diluted in 100 uL of serum free DMEM which yielded a final concentration of 10 nM once added to cells. 12 uL of HiPerfect Transfection reagent (Qiagen) was also added to the siRNA and mixed by pipetting. The siRNA mixture was allowed to form transfection complexes by incubation at room temperature for 7 minutes. The complexes were then added drop wise to the cells and incubated at 37° C. and 5% CO2 for 24 or 48 hours before harvest. Transfection efficiency was quantitatively measured by the fluorescently labeled scrambled negative control siRNA (Qiagen). siRNA knockdown efficiency was measured by positive control siGAPDH (Qigen) at the transcript and protein levels."}, "[6]": {"details": "CP-346086 1.3 nM with resistin 50 ng/mL, 24 hours"}}, "data": [{"compound": "O=C(Nc1ccc2c(c1)CCN(Cc1ncn[nH]1)C2)c1ccccc1-c1ccc(C(F)(F)F)cc1", "note": "[CP-346086, reference compound]", "values": [{"measurement": "HMG-coA reductase mRNA expression", "setting": "HepG2 cells [1]", "result": "reduction"}, {"measurement": "SREBP2 mRNA expression", "setting": "HepG2 cells [1]", "result": "reduction"}, {"measurement": "cell viability", "setting": "HepG2 cells [2]", "result": "did not reduce cell viability"}, {"measurement": "effect on LDL receptor protein levels observed with resistin treatment", "setting": "HepG2 cells [3]; [6]", "result": "reversed the decline"}, {"measurement": "effect on PCSK9 protein levels induced by resistin", "setting": "HepG2 cells [3]; [6]", "result": "reversed the increase"}]}, {"compound": "CC(=O)N[C@@H](CSC(=O)[C@]1([C@@H](O)C(C)C)NC(=O)[C@H](C)[C@@H]1O)C(=O)O", "note": "[lactacystin, reference compound]", "values": [{"measurement": "cellular expression and secretion of apoB", "setting": "HepG2 cells [4]", "result": "increase"}]}, {"compound": "CC[C@H](C)C(=O)O[C@H]1C[C@@H](C)C=C2C=C[C@H](C)[C@H](CC[C@@H]3C[C@@H](O)CC(=O)O3)[C@H]21", "note": "[lovastatin, reference compound]", "values": [{"measurement": "hepatocyte LDL receptor expression", "setting": "HepG2 cells [3]; lovastatin 5 μM", "result": "increase"}]}, {"compound": "Resistin siRNA: siRNA against RETN (human resistin gene), sequence 5′CCCTAATATTTAGGGCAATAA (SEQ ID NO: 5), Qiagen (listed as DNA, chemistry not given here)", "values": [{"measurement": "cellular LDL receptor levels", "setting": "[5]", "result": "very effective in increasing"}, {"measurement": "cellular PCSK9 levels", "setting": "[5]", "result": "reduction"}, {"measurement": "cellular protein levels of resistin", "setting": "[5]", "result": "very effective in reducing"}, {"measurement": "expression of apoB", "setting": "[5]", "result": "reducing the expression"}]}]}
